Data as given in ChEMBL document CHEMBL1926622, “Novel cyclohexyl-amides as potent antibacterials targeting bacterial type IIA topoisomerases” (Bioorg Med Chem Lett, 2011).
≈ marks a conversion by molar mass, not a printed value. Calls of active or inactive are those of the source. No cut-off for these calls is given here.

How the values were obtained:
[1] = Inhibition of Escherichia coli DNA gyrase-mediated DNA replication using [3H]dATP by scintillation proximity assay
Haemophilus influenzae [2] = test: Antibacterial activity against Haemophilus influenzae Q1 after 18 to 24 hrs by broth microdilution technique; assay type: functional
Streptococcus pneumoniae [3] = test: Antibacterial activity against Streptococcus pneumoniae 1629 after 18 to 24 hrs by broth microdilution technique; assay type: functional
Staphylococcus aureus = test: Antibacterial activity against Staphylococcus aureus WCUH 29 after 18 to 24 hrs by broth microdilution technique; assay type: functional
[4] = target: Voltage-gated inwardly rectifying potassium channel KCNH2 (Homo sapiens, UniProt Q12809); test: Inhibition of human ERG by whole cell patch clamp assay
[5] = Drug metabolism in monkey liver microsomes assessed as mono-oxidation metabolite formation; assay type: ADME, Macaca mulatta, Microsome; details: rhesus monkey
[6] = Oral bioavailability in Beagle dog at 4.5 mg/kg; assay type: ADME, organism-based, Canis lupus familiaris; details: in vivo
Canis familiaris [7] = test: Renal clearance in Beagle dog at 2.6 mg/kg, iv; assay type: ADME, organism-based, Canis lupus familiaris, Kidney; design: dose 2.6 mg/kg, route intravenous; details: in vivo
[8] = Oral bioavailability in Sprague-Dawley rat at 4.6 mg/kg; assay type: ADME, organism-based; details: in vivo
Rattus norvegicus [9] = test: Hepatic blood flow in Sprague-Dawley rat at 2.9 mg/kg, iv; assay type: ADME, organism-based, Liver; design: dose 2.9 mg/kg, route intravenous; details: in vivo
[10] = Volume of distribution at steady state in cynomolgus monkey at 2.7 mg/kg, iv; assay type: ADME, organism-based, Macaca fascicularis; design: dose 2.7 mg/kg, route intravenous; details: in vivo, read-out: Vdss
Cynomolgus monkey [11] = test: Hepatic blood flow in cynomolgus monkey at 2.7 mg/kg, iv; assay type: ADME, organism-based, Macaca fascicularis, Liver; design: dose 2.7 mg/kg, route intravenous; details: in vivo
[12] = Mean residence time in Sprague-Dawley rat at 4.6 mg/kg, po; assay type: ADME, organism-based; design: dose 4.6 mg/kg, route oral; details: in vivo
Rattus norvegicus [13] = test: Renal clearance in Sprague-Dawley rat at 2.9 mg/kg, iv; assay type: ADME, organism-based, Kidney; design: dose 2.9 mg/kg, route intravenous; details: in vivo
Liver microsomes [14] = test: Intrinsic clearance in human liver microsomes; assay type: ADME, Microsome
Liver = test: Intrinsic clearance in dog liver microsomes; assay type: ADME, Canis lupus familiaris, Microsome
[15] = Volume of distribution at steady state in Beagle dog at 2.6 mg/kg, iv; assay type: ADME, organism-based, Canis lupus familiaris; design: dose 2.6 mg/kg, route intravenous; details: in vivo, read-out: Vdss
[16] = Half life in Beagle dog at 2.6 mg/kg, iv; assay type: ADME, organism-based, Canis lupus familiaris; design: dose 2.6 mg/kg, route intravenous; details: in vivo
[17] = Mean residence time in Beagle dog at 4.5 mg/kg, po; assay type: ADME, organism-based, Canis lupus familiaris; design: dose 4.5 mg/kg, route oral; details: in vivo
[18] = Mean residence time in cynomolgus monkey at 4.4 mg/kg, po; assay type: ADME, organism-based, Macaca fascicularis; design: dose 4.4 mg/kg, route oral; details: in vivo
[19] = Half life in cynomolgus monkey at 2.7 mg/kg, iv; assay type: ADME, organism-based, Macaca fascicularis; design: dose 2.7 mg/kg, route intravenous; details: in vivo
[20] = Half life in Sprague-Dawley rat at 2.9 mg/kg, iv; assay type: ADME, organism-based; design: dose 2.9 mg/kg, route intravenous; details: in vivo
[21] = Blood clearance in Sprague-Dawley rat at 2.9 mg/kg, iv; assay type: ADME, organism-based; design: dose 2.9 mg/kg, route intravenous
Streptococcus pneumoniae [22] = test: Antibacterial activity against Streptococcus pneumoniae 1629 infected in rat assessed as complete eradication of infection at 50 mg/kg, po after 48 hrs; assay type: functional, organism-based; design: dose 50 mg/kg
[23] = Plasma protein binding in monkey; assay type: ADME, cell-free, Macaca mulatta; details: rhesus monkey, read-out: PPB (converted)
[24] = Blood clearance in cynomolgus monkey at 2.7 mg/kg, iv; assay type: ADME, organism-based, Macaca fascicularis; design: dose 2.7 mg/kg, route intravenous
Streptococcus pneumoniae [25] = test: Antibacterial activity against Streptococcus pneumoniae 1629 infected in rat assessed as log decrease in colony forming units per lung at 25 mg/kg, po after 48 hrs relative to untreated control; assay type: functional
[26] = AUC in cynomolgus monkey at 4.4 mg/kg, po; assay type: ADME, organism-based, Macaca fascicularis; design: dose 4.4 mg/kg, route oral; details: plasma
Liver microsomes [27] = test: Drug metabolism in rat liver microsomes assessed as mono-oxidation metabolite formation; assay type: ADME, Microsome
[28] = Plasma protein binding in human; assay type: ADME, cell-free; details: read-out: PPB (converted)
[29] = Intrinsic clearance in monkey liver microsomes; assay type: ADME, Macaca mulatta, Microsome; details: rhesus monkey
[30] = Volume of distribution at steady state in Sprague-Dawley rat at 2.9 mg/kg, iv; assay type: ADME, organism-based; design: dose 2.9 mg/kg, route intravenous; details: in vivo, read-out: Vdss
Haemophilus influenzae [31] = test: Antibacterial activity against Haemophilus influenzae H128 after 18 to 24 hrs by broth microdilution technique; assay type: functional
[32] = Plasma protein binding in dog; assay type: ADME, cell-free, Canis lupus familiaris; details: read-out: PPB (converted)
Cynomolgus monkey [33] = test: Renal clearance in cynomolgus monkey at 2.7 mg/kg, iv; assay type: ADME, organism-based, Macaca fascicularis, Kidney; design: dose 2.7 mg/kg, route intravenous; details: in vivo
[34] = Oral bioavailability in cynomolgus monkey at 4.4 mg/kg; assay type: ADME, organism-based, Macaca fascicularis; details: in vivo
[35] = Blood clearance in Beagle dog at 2.6 mg/kg, iv; assay type: ADME, organism-based, Canis lupus familiaris; design: dose 2.6 mg/kg, route intravenous
[36] = AUC in Beagle dog at 4.5 mg/kg, po; assay type: ADME, organism-based, Canis lupus familiaris; design: dose 4.5 mg/kg, route oral; details: plasma
Canis familiaris [37] = test: Hepatic blood flow in Beagle dog at 2.6 mg/kg, iv; assay type: ADME, organism-based, Canis lupus familiaris, Liver; design: dose 2.6 mg/kg, route intravenous; details: in vivo
[38] = Plasma protein binding in rat; assay type: ADME, cell-free; details: read-out: PPB (converted)
[39] = AUC in Sprague-Dawley rat at 4.6 mg/kg, po; assay type: ADME, organism-based; design: dose 4.6 mg/kg, route oral; details: plasma
[40] = Drug metabolism in dog liver microsomes assessed as mono-oxidation metabolite formation; assay type: ADME, Canis lupus familiaris, Microsome

Voltage-gated inwardly rectifying potassium channel KCNH2, sequence (Q12809 whole entry): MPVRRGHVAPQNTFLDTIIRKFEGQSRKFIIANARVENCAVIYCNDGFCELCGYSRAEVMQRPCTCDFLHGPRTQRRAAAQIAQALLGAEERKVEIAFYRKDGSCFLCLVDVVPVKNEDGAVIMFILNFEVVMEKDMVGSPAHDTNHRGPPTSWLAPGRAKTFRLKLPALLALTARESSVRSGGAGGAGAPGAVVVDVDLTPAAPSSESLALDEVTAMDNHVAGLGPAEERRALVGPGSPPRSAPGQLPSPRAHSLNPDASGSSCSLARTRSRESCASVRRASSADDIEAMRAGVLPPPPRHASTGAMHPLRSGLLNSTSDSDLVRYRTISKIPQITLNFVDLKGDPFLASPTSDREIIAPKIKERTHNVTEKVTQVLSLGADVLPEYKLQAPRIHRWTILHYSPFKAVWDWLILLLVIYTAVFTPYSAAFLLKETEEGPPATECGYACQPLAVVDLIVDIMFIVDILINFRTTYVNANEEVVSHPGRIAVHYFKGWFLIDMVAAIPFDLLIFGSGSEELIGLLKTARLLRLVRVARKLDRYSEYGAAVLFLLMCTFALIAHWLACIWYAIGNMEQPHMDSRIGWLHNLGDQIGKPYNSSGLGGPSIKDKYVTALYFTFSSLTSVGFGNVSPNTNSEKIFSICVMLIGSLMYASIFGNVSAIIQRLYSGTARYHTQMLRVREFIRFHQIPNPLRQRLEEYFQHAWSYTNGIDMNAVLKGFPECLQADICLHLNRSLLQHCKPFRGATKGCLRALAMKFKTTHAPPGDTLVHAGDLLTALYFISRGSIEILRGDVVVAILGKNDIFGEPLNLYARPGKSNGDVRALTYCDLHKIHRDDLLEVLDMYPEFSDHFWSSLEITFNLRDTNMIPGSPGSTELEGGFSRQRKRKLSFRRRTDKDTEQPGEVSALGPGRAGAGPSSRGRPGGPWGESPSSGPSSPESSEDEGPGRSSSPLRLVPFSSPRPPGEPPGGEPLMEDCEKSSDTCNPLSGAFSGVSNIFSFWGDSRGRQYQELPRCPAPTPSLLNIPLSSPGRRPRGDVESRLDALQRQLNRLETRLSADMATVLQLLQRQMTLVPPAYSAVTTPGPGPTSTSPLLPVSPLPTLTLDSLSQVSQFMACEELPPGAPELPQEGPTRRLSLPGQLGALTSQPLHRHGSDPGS

SMILES: COc1ccc2nccc(NC(=O)[C@H]3CC[C@H](NCc4ccc5c(c4)OCCO5)CC3)c2c1
- IC50 [1]: 0.017 µg/mL (≈ 0.038 µM)
- MIC (Haemophilus influenzae [2]): 2 µg/mL (≈ 4.47 µM)
- MIC (Streptococcus pneumoniae [3]): 0.25 µg/mL (≈ 0.559 µM)
- MIC (Staphylococcus aureus): 0.03 µg/mL (≈ 0.067 µM)
- IC50 [4]: 25 µM

SMILES: COc1ccc2nccc(NC(=O)[C@]3(O)CC[C@@H](NCc4cc5c(cn4)OCCO5)CC3)c2n1
- Drug metabolism [5]: Active
- bioavailability [6]: 63%
- CL (Canis familiaris [7]): 3%
- bioavailability [8]: 18%
- QH (Rattus norvegicus [9]): 73%
- Vd [10]: 4.1 L/kg
- IC50 [1]: 0.013 µg/mL (≈ 0.0279 µM)
- QH (Cynomolgus monkey [11]): 73%
- MRT [12]: 2.9 h
- CL (Rattus norvegicus [13]): 3%
- CL (Liver microsomes [14]): 0.8 mL/min/g
- CL (Liver): 2.2 mL/min/g
- Vd [15]: 3.7 L/kg
- half-life [16]: 6.3 h
- MRT [17]: 9.8 h
- MRT [18]: 6.4 h
- half-life [19]: 1.8 h
- half-life [20]: 1 h
- clearance [21]: 41.1 mL/min/kg
- Activity (Streptococcus pneumoniae [22]): Active
- fraction unbound [23]: 0.165
- clearance [24]: 34.2 mL/min/kg
- log10cfu (Streptococcus pneumoniae [25]): 2
- AUC [26]: 190 ng·h/mL
- Drug metabolism (Liver microsomes [27]): Active
- fraction unbound [28]: 0.274
- CL [29]: 2.6 mL/min/g
- Vd [30]: 2.41 L/kg
- MIC (Haemophilus influenzae [31]): 0.5 µg/mL (≈ 1.07 µM)
- fraction unbound [32]: 0.263
- CL (Cynomolgus monkey [33]): 3%
- MIC (Streptococcus pneumoniae [3]): 0.125 µg/mL (≈ 0.269 µM)
- MIC (Staphylococcus aureus): 0.01 µg/mL (≈ 0.0215 µM)
- bioavailability [34]: 9%
- clearance [35]: 8.4 mL/min/kg
- AUC [36]: 5700 ng·h/mL
- QH (Canis familiaris [37]): 73%
- fraction unbound [38]: 0.268
- AUC [39]: 340 ng·h/mL
- Drug metabolism [40]: Active

SMILES: Cc1ccc2cccc(NC(=O)[C@]3(O)CC[C@@H](NCc4cc5c(cn4)OCCO5)CC3)c2n1
- IC50 [1]: 0.05 µg/mL (≈ 0.111 µM)
- MIC (Haemophilus influenzae [31]): 2 µg/mL (≈ 4.46 µM)
- MIC (Streptococcus pneumoniae [3]): 0.125 µg/mL (≈ 0.279 µM)
- MIC (Staphylococcus aureus): 0.125 µg/mL (≈ 0.279 µM)
- IC50 [4]: 2 µM

SMILES: COc1ccc2nccc(NC(=O)[C@]3(O)CC[C@@H](NCc4cnc5c(c4)OCCO5)CC3)c2n1
- IC50 [1]: 0.01 µg/mL (≈ 0.0215 µM)
- MIC (Haemophilus influenzae [31]): 2 µg/mL (≈ 4.3 µM)
- MIC (Streptococcus pneumoniae [3]): 0.06 µg/mL (≈ 0.129 µM)
- MIC (Staphylococcus aureus): 0.03 µg/mL (≈ 0.0644 µM)

SMILES: COc1ccc2nccc(NC(=O)[C@H]3CC[C@H](NCc4ccc5c(c4)OCCO5)CC3)c2n1
- IC50 [1]: 0.003 µg/mL (≈ 0.00669 µM)
- MIC (Haemophilus influenzae [31]): 1 µg/mL (≈ 2.23 µM)
- MIC (Streptococcus pneumoniae [3]): 0.125 µg/mL (≈ 0.279 µM)
- MIC (Staphylococcus aureus): 0.03 µg/mL (≈ 0.0669 µM)

SMILES: N#Cc1ccc2cccc(NC(=O)[C@]3(O)CC[C@@H](NCc4cc5c(cn4)OCCO5)CC3)c2n1
- IC50 [1]: 0.002 µg/mL (≈ 0.00435 µM)
- MIC (Haemophilus influenzae [31]): 0.5 µg/mL (≈ 1.09 µM)
- MIC (Streptococcus pneumoniae [3]): 0.06 µg/mL (≈ 0.131 µM)
- MIC (Staphylococcus aureus): 0.03 µg/mL (≈ 0.0653 µM)

SMILES: COc1ccc2nccc(NC(=O)[C@]3(O)CC[C@@H](NCc4ccc5c(c4)OCCO5)CC3)c2n1
- IC50 [1]: 0.004 µg/mL (≈ 0.00861 µM)
- MIC (Haemophilus influenzae [31]): 0.5 µg/mL (≈ 1.08 µM)
- MIC (Streptococcus pneumoniae [3]): 0.03 µg/mL (≈ 0.0646 µM)
- MIC (Staphylococcus aureus): 0.03 µg/mL (≈ 0.0646 µM)
- IC50 [4]: 25 µM

SMILES: COc1cc(F)c2nccc(NC(=O)[C@]3(O)CC[C@@H](NCc4cc5c(cn4)OCCO5)CC3)c2c1
- IC50 [1]: 0.009 µg/mL (≈ 0.0187 µM)
- MIC (Haemophilus influenzae [31]): 1 µg/mL (≈ 2.07 µM)
- MIC (Streptococcus pneumoniae [3]): 0.125 µg/mL (≈ 0.259 µM)
- MIC (Staphylococcus aureus): 0.06 µg/mL (≈ 0.124 µM)
- IC50 [4]: 113 µM

SMILES: Cc1ccc2cccc(NC(=O)[C@H]3CC[C@H](NCc4cc5c(cn4)OCCO5)CC3)c2n1
- IC50 [1]: 0.069 µg/mL (≈ 0.16 µM)
- MIC (Haemophilus influenzae [31]): 2 µg/mL (≈ 4.62 µM)
- MIC (Streptococcus pneumoniae [3]): 0.25 µg/mL (≈ 0.578 µM)
- MIC (Staphylococcus aureus): 0.125 µg/mL (≈ 0.289 µM)

SMILES: COc1ccc2nccc(NC(=O)[C@H]3CC[C@H](NCc4cc5c(cn4)OCCO5)CC3)c2n1
- IC50 [1]: 0.008 µg/mL (≈ 0.0178 µM)
- MIC (Haemophilus influenzae [31]): 0.25 µg/mL (≈ 0.556 µM)
- MIC (Streptococcus pneumoniae [3]): 0.03 µg/mL (≈ 0.0667 µM)
- MIC (Staphylococcus aureus): 0.01 µg/mL (≈ 0.0222 µM)
- IC50 [4]: 29 µM

SMILES: N#Cc1ccc2cccc(NC(=O)[C@@H]3CC[C@@H](NCc4cc5c(cn4)OCCO5)[C@@H](O)C3)c2n1
- IC50 [1]: 0.001 µg/mL (≈ 0.00218 µM)
- MIC (Haemophilus influenzae [31]): 0.5 µg/mL (≈ 1.09 µM)
- MIC (Streptococcus pneumoniae [3]): 0.03 µg/mL (≈ 0.0653 µM)
- MIC (Staphylococcus aureus): 0.01 µg/mL (≈ 0.0218 µM)

SMILES: COc1ccc2nccc(NC(=O)[C@]3(O)CC[C@@H](NCc4cc5c(cn4)OCCO5)CC3)c2c1
- IC50 [1]: 0.01 µg/mL (≈ 0.0215 µM)
- MIC (Haemophilus influenzae [31]): 1 µg/mL (≈ 2.15 µM)
- MIC (Streptococcus pneumoniae [3]): 0.125 µg/mL (≈ 0.269 µM)
- MIC (Staphylococcus aureus): 0.125 µg/mL (≈ 0.269 µM)
- IC50 [4]: 200 µM

SMILES: CO[C@@H]1C[C@H](C(=O)Nc2cccc3ccc(C)nc23)CC[C@H]1NCc1cc2c(cn1)OCCO2
- IC50 [1]: 0.102 µg/mL (≈ 0.221 µM)
- MIC (Haemophilus influenzae [31]): 16 µg/mL (≈ 34.6 µM)
- MIC (Streptococcus pneumoniae [3]): 0.5 µg/mL (≈ 1.08 µM)
- MIC (Staphylococcus aureus): 0.5 µg/mL (≈ 1.08 µM)
